Data on 17 compounds can be found in US20100075907A1, “NEUROMEDIN U RECEPTOR AGONISTS AND USES THEREOF” (priority 2006, published 2010).

pIC50: −log10 of the molar value. Non-standard residues stand in square brackets, D forms with d. Residues, ends and D or L forms follow the SMILES beside them. No end group written: not given here. hArg = N=C(N)NCCCC[C@H](N)C(=O)O; dNle = CCCC[C@@H](N)C(=O)O

For the first assay, the target named is hNMUR2 (Homo sapiens, UniProt Q9GZQ4). The assay is described as follows: 125I-hNMU-25 binding assay, human NMUR2 membranes. More on the design: expressed in transfected cells; host or cells: HEK-293 FLP-In cells (pcDNA5); HEK-293/aeq17 lines (pcDNA3.1) were also made; % inhibition of NMU-25 binding / % Activity: concentration or dose not given beside the values. The settings on record: Table 8, HEK-hR2, binding. As to the method: Confluent cell monolayers expressing NMU receptors (the HEK cells described above) were harvested with phosphate buffered saline, collected by centrifugation, and resuspended in membrane buffer (50 mM TrisCl pH 7.4, 5 mM MgCl2, 1× Protease Inhibitor Cocktail, 10 μM phosphoramidon). After the cell pellet was homogenized, the solution was centrifuged at 18,000 rpm for 20 minutes at 4° C. The pellet was resuspended in membrane buffer to yield a final concentration of 0.5-5 μg/μL of membrane and stored at −80° C.
hNMUR2, sequence (Q9GZQ4 whole entry): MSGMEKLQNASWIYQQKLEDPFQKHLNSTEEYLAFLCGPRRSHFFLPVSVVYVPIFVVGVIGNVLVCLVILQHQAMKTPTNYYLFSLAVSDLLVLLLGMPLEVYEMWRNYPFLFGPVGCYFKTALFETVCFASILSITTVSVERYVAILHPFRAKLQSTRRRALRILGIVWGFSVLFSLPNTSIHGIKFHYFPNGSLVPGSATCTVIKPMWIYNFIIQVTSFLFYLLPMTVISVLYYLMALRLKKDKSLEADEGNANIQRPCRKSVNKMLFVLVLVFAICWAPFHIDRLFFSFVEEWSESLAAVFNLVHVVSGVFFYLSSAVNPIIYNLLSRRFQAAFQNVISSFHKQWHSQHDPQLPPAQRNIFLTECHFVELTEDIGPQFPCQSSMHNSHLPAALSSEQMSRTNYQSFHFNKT
Experiments were performed in assay buffer (25 mM TrisCl, pH 7.4, 10 mM MgCl2, 2 mM EDTA, 1× Protease Inhibitor Cocktail, 100 μg/mL Bacitricin, 10 μM phosphoramidon) in 200 μL volumes in a 96-well format using 2-5 μg of membrane and 0.1 nM ^125I-hNMU-25 (about 12,000 cpm/well). For non-specific binding, 1 μM hNMU-25 was added. About 5 μL of peptides were added to measure antagonist activity, and the entire reaction was incubated at room temperature with shaking for 80 minutes. The reaction was terminated by rapid filtration through 0.3% poly-ethylenimine presoaked Millipore 96-well filter plates and washed with ice-cold buffer (5 mM TrisCl pH 7.4, 10 mM MgCl2, 2.5 mM EDTA, 0.04% Triton X-100). Plates were air-dried overnight at room temperature and recovered radioactivity was determined by standard scintillation counting. IC50 values were determined using GraphPad Prism software.
Concentration-response curves and radioligand-binding data were fitted using Prism (GraphPad Software). Results are summarized below in Tables 8 and 9.
`CC(=O)N[C@@H](Cc1ccccc1)C(=O)N[C@H](CC(C)C)C(=O)N[C@@H](Cc1c[nH]c2ccccc12)C(=O)N[C@@H](CCCNC(=N)N)C(=O)N1CCC[C@H]1C(=O)N[C@@H](CCCNC(=N)N)C(=O)N[C@@H](CC(N)=O)C(N)=O` [Agonist E, Ac-F-(D-L)-WRPRN-CONH2] (Ac-F[dL]WRPRN-NH2): the “% Activity” value is reported as 5% and the pIC50 was less than 6.00.
The corresponding values for H-YFGWRPRN-NH2 [Agonist C] are 0% and less than 6.00.
For “H-FRVDEEFQSPFASQSRGYFWRPRN-NH2 [Agonist G]”, the “% Activity” value came out at 33%.
Take “Ac-FFRPRN-NH2 [Agonist F, Ac-FFRPRN-CONH2]”: the “% Activity” value is recorded as 12% and the pIC50 was less than 6.00.
For the compound YFWRPRN-NH2 [Agonist A, YFWRPRN-CONH2], the “% Activity” value is 0% and the pIC50 is less than 6.00.
For `C[C@@H](NC(=O)[C@H](Cc1ccccc1)NC(=O)[C@@H](N)Cc1ccc(O)cc1)C(=O)N[C@@H](Cc1c[nH]c2ccccc12)C(=O)N[C@@H](CCCNC(=N)N)C(=O)N1CCC[C@H]1C(=O)N[C@@H](CCCNC(=N)N)C(=O)N[C@@H](CC(N)=O)C(N)=O` [Agonist D, YF-(D-A)-WRPRN-CONH2] (H-YF[dA]WRPRN-NH2; N-terminus assumed), in that order: 0% and less than 6.00.
`CC(C)C[C@@H](NC(=O)[C@H](Cc1ccccc1)NC(=O)[C@@H](N)Cc1ccc(O)cc1)C(=O)N[C@@H](Cc1c[nH]c2ccccc12)C(=O)N[C@@H](CCCNC(=N)N)C(=O)N1CCC[C@H]1C(=O)N[C@@H](CCCNC(=N)N)C(=O)N[C@@H](CC(N)=O)C(N)=O` [Agonist B, YF-(D-L)-WRPRN-CONH2] (H-YF[dL]WRPRN-NH2): the “% Activity” value worked out at 35% and the negative-log IC50 (pIC50) was less than 6.00.

Staying with this assay, now noted: Table 9, HEK-hR2, binding.
On to `CC(C)C[C@H](NC(=O)[C@H](Cc1c[nH]c2ccccc12)NC(=O)[C@H](Cc1ccccc1)NC(=O)CNC(=O)[C@H](CCCNC(=N)N)NC(=O)[C@H](CO)NC(=O)[C@H](CCC(N)=O)NC(=O)[C@H](CO)NC(=O)[C@H](C)NC(=O)[C@H](Cc1ccccc1)NC(=O)[C@@H]1CCCN1C(=O)[C@H](CO)NC(=O)[C@H](CCC(N)=O)NC(=O)[C@H](Cc1ccccc1)NC(=O)[C@H](CCC(=O)O)NC(=O)[C@H](CCC(=O)O)NC(=O)[C@H](CC(=O)O)NC(=O)[C@@H](NC(=O)[C@H](CCCNC(=N)N)NC(=O)[C@@H](N)Cc1ccccc1)C(C)C)C(=O)N[C@@H](Cc1ccccc1)C(=O)N[C@@H](CCCNC(=N)N)C(=O)N[C@@H](C)C(=O)N[C@@H](CCCCNC(=N)N)C(=O)N[C@@H](CC(N)=O)C(N)=O` [Agonist P] (H-FRVDEEFQSPFASQSRGFWLFRA[hArg]N-NH2; N-terminus assumed), for which the “% Activity” value amounted to 81% and the pIC50 was 6.82.
For `CCCC[C@@H](NC(=O)[C@H](CCCNC(=N)N)NC(=O)[C@@H]1CCCN1C(=O)[C@H](CCCNC(=N)N)NC(=O)[C@H](Cc1ccccc1)NC(=O)[C@H](CC(C)C)NC(=O)[C@H](Cc1c[nH]c2ccccc12)NC(=O)[C@H](Cc1ccccc1)NC(=O)CNC(=O)[C@H](CCCNC(=N)N)NC(=O)[C@H](CO)NC(=O)[C@H](CCC(N)=O)NC(=O)[C@H](CO)NC(=O)[C@H](C)NC(=O)[C@H](Cc1ccccc1)NC(=O)[C@@H]1CCCN1C(=O)[C@H](CO)NC(=O)[C@H](CCC(N)=O)NC(=O)[C@H](Cc1ccccc1)NC(=O)[C@H](CCC(=O)O)NC(=O)[C@H](CCC(=O)O)NC(=O)[C@H](CC(=O)O)NC(=O)[C@@H](NC(=O)[C@H](CCCNC(=N)N)NC(=O)[C@@H](N)Cc1ccccc1)C(C)C)C(N)=O` [Agonist Q] (H-FRVDEEFQSPFASQSRGFWLFRPR[dNle]-NH2), the “% Activity” value is listed as 89%.
For `CC(C)C[C@H](NC(=O)[C@H](Cc1ccccc1)NC(=O)[C@@H](N)Cc1ccc(O)cc1)C(=O)N[C@@H](Cc1ccccc1)C(=O)N[C@@H](CCCNC(=N)N)C(=O)N1CCC[C@H]1C(=O)N[C@@H](CCCNC(=N)N)C(=O)N[C@@H](CC(N)=O)C(N)=O` [NMU-8, reference compound], the “% Activity” value stood at 100%.
Take `CC(C)C[C@H](NC(=O)[C@H](Cc1c[nH]c2ccccc12)NC(=O)[C@@H](N)Cc1ccccc1)C(=O)N[C@@H](Cc1ccccc1)C(=O)N[C@@H](CCCNC(=N)N)C(=O)N[C@@H](C)C(=O)N[C@@H](CCCCNC(=N)N)C(=O)N[C@@H](CC(N)=O)C(N)=O` [Agonist J, FWLFRA-(Harg)-N-CONH2] (H-FWLFRA[hArg]N-NH2): the “% Activity” value is recorded as 63% and the pIC50 is 6.82.
As for H-FWLFRARN-NH2 [Agonist L], the “% Activity” value was found to be 100%.
On to WALFRARN-NH2 [Agonist M], for which the “% Activity” value was determined as 71% and the pIC50 was 6.74.
With FALFRPRN-NH2 [Agonist N], the “% Activity” value is reported as 100%.
Still for that read-out and setting: to `CC(C)C[C@H](NC(=O)[C@H](Cc1c[nH]c2ccccc12)NC(=O)[C@@H](N)Cc1ccccc1)C(=O)N[C@@H](Cc1ccccc1)C(=O)N[C@@H](CCCNC(=N)N)C(=O)N1CCC[C@H]1C(=O)N[C@@H](CCCCNC(=N)N)C(=O)N[C@@H](CC(N)=O)C(N)=O` [Agonist I, FWLFRP-(Harg)-N-CONH2] (H-FWLFRP[hArg]N-NH2) belongs 90%.
With `CC(C)C[C@H](NC(=O)[C@H](Cc1c[nH]c2ccccc12)NC(=O)[C@H](Cc1ccccc1)NC(=O)CNC(=O)[C@H](CCCNC(=N)N)NC(=O)[C@H](CO)NC(=O)[C@H](CCC(N)=O)NC(=O)[C@H](CO)NC(=O)[C@H](C)NC(=O)[C@H](Cc1ccccc1)NC(=O)[C@@H]1CCCN1C(=O)[C@H](CO)NC(=O)[C@H](CCC(N)=O)NC(=O)[C@H](Cc1ccccc1)NC(=O)[C@H](CCC(=O)O)NC(=O)[C@H](CCC(=O)O)NC(=O)[C@H](CC(=O)O)NC(=O)[C@@H](NC(=O)[C@H](CCCNC(=N)N)NC(=O)[C@@H](N)Cc1ccccc1)C(C)C)C(=O)N[C@@H](Cc1ccccc1)C(=O)N[C@@H](CCCNC(=N)N)C(=O)N1CCC[C@H]1C(=O)N[C@@H](CCCCNC(=N)N)C(=O)N[C@@H](CC(N)=O)C(N)=O` [Agonist O] (H-FRVDEEFQSPFASQSRGFWLFRP[hArg]N-NH2; N-terminus assumed), the “% Activity” value is 92% and the pIC50 is 8.52.
As to `CCCC[C@@H](NC(=O)[C@H](CCCNC(=N)N)NC(=O)[C@H](C)NC(=O)[C@H](CCCNC(=N)N)NC(=O)[C@H](Cc1ccccc1)NC(=O)[C@H](CC(C)C)NC(=O)[C@H](Cc1ccccc1)NC(=O)[C@@H](N)Cc1c[nH]c2ccccc12)C(N)=O` [Agonist K, WFLFRAR-(D-Nle)-CONH2] (H-WFLFRAR[dNle]-NH2), the “% Activity” value is on record as 100%.

The term pIC50 denotes −log10 of the IC50, conventionally taken in molar units.
